Assay results published in PMC10986989, “Reciprocal regulation of enterococcal cephalosporin resistance by products of the autoregulated yvcJ-glmR-yvcL operon enhances fitness during cephalosporin exposure” (PLOS Genetics, 2024).

Biological target: T1, GlmR (Enterococcus faecalis, UniProt A0ACD6TA08)
T1 construct: gene OG1RF_10501
Experiment: thermal shift assay (SYPRO Orange)
Format: binding
Details: 10 uM protein, 1 mM ligand

CC(=O)N[C@H]1[C@@H](OP(=O)(O)OP(=O)(O)OC[C@H]2O[C@@H](n3ccc(=O)[nH]c3=O)[C@H](O)[C@@H]2O)O[C@H](CO)[C@@H](O)[C@@H]1O [UDP-GlcNAc]
thermal shift: When incubated with UDP-GlcNAc, both YvcJ and GlmR exhibited clear thermal shifts
